Test results from patent publication US20150125904A1, “PROBE INCORPORATION MEDIATED BY ENZYMES” (Massachusetts Institute of Technology, priority 2012, published 2015).
Where two headings read alike, the source gives them in different places.

Columns and labels:
[1] = cited from earlier work
[2] = target: T1, Wild-type LplA (Escherichia coli, UniProt P32099); settings: cited from earlier work
T1 construct: His6 (N); made in house; host or cells: E. coli

[3] = test system: LAP-CFP-TM on HEK cells; assay: Enzyme-catalyzed azide ligation efficiencies at the cell surface (anti-lipoic acid antibody staining); type: cell-based, human; settings: for lipoylation of remaining LAP sites after azide labeling, relative to condition 3 (100%): 20 min azide ligation, picolyl azide 8 with W37VLplA, 8-azidooctanoic acid with wild-type LplA; for estimated extent of azide ligation: indirectly estimated from lipoylation extent, 20 min
Method: A: Labeling protocol. HEK cells expressing LAP-CFP-TM were labeled with picolyl azide 8 and W37VLplA, or 8-azidooctanoic acid and wild-type LplA, using the same exact conditions as in FIGS. 6 and 9. Thereafter, cells were washed and any remaining unmodified LAP sites were labeled under forcing conditions with lipoic acid (200 μM lipoic acid, 1 mM ATP, and 20 μM wild-type LplA for 20 min). Anti-lipoic acid antibody staining was used to quantify the extent of lipoylation, and CuAAC was performed thereafter with 20 μM Alexa Fluor® 647-alkyne, 100 μM CuSO4, and 500 μM BTTAA ligand for 5 min. Cells were imaged live. B: Representative confocal images. Results obtained using picolyl azide 8 (condition 2) are shown below results with 8-azidooctanoic acid (condition 1). A negative control with neither azide added during the LplA step is shown in the bottom row (condition 3). The Alexa Fluor® 647 channel reflects CuAAC labeling. The Alexa Fluor® 568 channel reflects anti-lipoic acid antibody labeling. The CFP channel showing LAP-CFP-TM expression is overlaid on DIC. Scale bars, 10 μm. C: Quantitation of data in (B). The mean intensities in all three channels were collected for >90 single cells for each condition. To compare the extents of lipoylation, the Alexa Fluor® 568/CFP ratios were calculated (to normalize for variations in LAP expression level), averaged, and plotted on the graph. CuAAC labeling extent was quantified in a similar way. Error bars, ±s.e.m. Due to the forcing conditions of the LplA-catalyzed lipoylation, we set condition 3 to represent 100% lipoylation extent for the cell surface LAP-CFP-TM population. By comparison, lipoylation after picolyl azide 8 labeling proceeds to 19% that of condition. Lipoylation after 8-azidooctanoic acid labeling proceeds to 37% that of condition 3. Based on these, we can indirectly estimate that picolyl azide 8 ligation proceeds to 81%, and 8-azidooctanoic acid ligation proceeds to 63%, under these conditions.
Live HEK cells were incubated with rabbit anti-lipoic acid antibody (Calbiochem) in cell growth medium at 1:300 dilution for 10 min at room temperature, followed by two washes with cell growth medium. Thereafter, cells were incubated with anti-rabbit secondary antibody conjugated to Alexa Fluor® 568 (Life Technologies) in cell growth medium at 1:300 dilution for 10 min at room temperature, followed by two washes with cell growth medium.

[4] = Kinetic analysis of the CuAAC reaction (fluorogenic click with 7-ethynyl coumarin); settings: for improvement in initial CuAAC rate over carbocyclic analog: 10 μM CuSO4, no accelerating ligand, 2 vs 1, 4 vs 3; for effect of ring substituent on CuAAC reaction: 10 μM CuSO4, no ligand
Method: FIG. 4 is a graph illustrating in vitro analysis of CuAAC rates with chelating azides. A: A fluorogenic click reaction with 7-ethynyl coumarin was used to quantify CuAAC reaction progress. Zhou et al., JACS, 126:8862-8863 (2004). B: Various chelating azide structures tested and their CuAAC reaction yields after 10 min and 30 min. Reactions were run with 10 μM CuSO4 and no ligand (THPTA or BTTAA). C: Kinetic comparison of chelating azide 4 and its non-chelating benzyl counterpart 3 at different copper concentrations. CuAAC product was quantified using the assay in A), at 100, 40, and 10 μM CuSO4, both in the absence and presence of Cu(I) ligand THPTA. Measurements were performed in triplicate. Error bars, ±s.d.
Fluorescence was converted to coumarin triazole product quantity by comparison to standard curves, individually generated for each azide-coumarin alkyne adduct. Entries with less than 1% reaction yield (azides 1 and 3) are omitted from the plot. Measurements were performed in triplicate. Error bars, ±s.d.
General reaction conditions: 20 μM azide, 40 μM 7-ethynyl coumarin (A), and 4 mM sodium ascorbate in 100 mM sodium phosphate buffer at pH 7.4 at 25±1° C. 100 μM Tempol was added to each reaction to minimize Cu-dependent fluorescence quenching of 7-ethynyl coumarin and coumarin-triazoles. FIG. 4A.
Reactions were initiated by the addition of CuSO4: 10 μM for the azide compounds shown in FIG. 4B, and 10, 40, or 100 μM for the compounds shown in FIG. 4C. In FIG. 4C when THPTA was included, the THPTA:copper ratio was fixed at a 4:1 molar ratio. Coumarin fluorescence was recorded on a Tecan SAFIRE microplate reader at 2-min intervals for 30 min with excitation at 320 nm and emission detection at 430 nm. For each azide, the turn-on fluorescence of coumarin was correlated to % conversion to product using a calibration curve made from a mixture of known concentrations of 7-ethynyl coumarin and coumarin-triazole adduct of each azide, as follows:
Coumarin-triazole standards for azide 1, 2, 5, 6, and 7 (FIG. 4B) were generated from reacting 120 μM of each azide with 100 μM 7-ethynyl coumarin until 7-ethynyl coumarin was fully converted to the triazole adduct, using 100 μM CuSO4, 400 μM THPTA, and 4 mM sodium ascorbate. […] Such reaction mixture, now representing coumarin-triazole of a known concentration (100 μM), was then mixed with 7-ethynyl coumarin in defined ratios in the presence of 20-fold molar excess of EDTA relative to CuSO4, (which was carried over from the triazole generation reaction), to generate the calibration curve above.
Coumarin-triazole standards for azide 3 and 4 were generated from purified coumarin-triazole adducts for each azide (synthetic methods described below). Calibration curves were generated for azide 3 and 4 using coumarin-triazoles from crude reaction mixtures as described above, and found them to perform similarly to calibration curves generated from purified triazoles. FIG. 4C.

[5] = test system: LAP-CFP-TM on HEK cells; assay: Two-step cell surface protein labeling, PRIME followed by CuAAC (Alexa Fluor 647/CFP ratio); type: cell-based, human
Method: FIG. 6 is a diagram showing comparison of protein labeling signals on live cells using PRIME and CuAAC, with and without chelating azides. Two-step site-specific protein labeling was performed as in FIG. 3B above and 9 below, on HEK cells expressing LAP-tagged cyan fluorescent protein fused to the transmembrane domain of the PDGF receptor (LAP-CFP-TM). In the first step, either W37VLplA was used to target picolyl azide 8 to LAP, or wild-type LplA was used to ligate non-chelating 8-azidooctanoic acid. The efficiencies of these two ligation reactions are compared in FIG. S5. In the second step, CuAAC was performed for 5 min with Alexa Fluor® 647-alkyne and CuSO4 (10, 40, or 100 μM) in combination with either THPTA or BTTAA ligand (provided in 5-fold excess relative to the CuSO4 concentration). To quantify labeling signals, the mean Alexa Fluor® 647 and mean CFP intensities were calculated for >90 cells for each condition, ratioed to normalize for variations in LAP-CFP-TM expression level, and averaged. Error bars, ±s.e.m.
A: Two-step site-specific cell surface protein labeling protocol. In the first step, HEK cells expressing LAP-CFP-TM (TM is the transmembrane helix of the PDGF receptor) were labeled with picolyl azide 8 using W37VLplA and ATP added to the cell medium for 20 min. Alternatively, LAP-CFP-TM was labeled with non-chelating azide 8-azidooctanoic acid using wild-type LplA. In the second step, CuAAC was performed for 5 min using Alexa Fluor® 647-alkyne, various concentrations of CuSO4 (10, 40, or 100 μM), and either THPTA or BTTAA ligand added in 4-fold excess of the CuSO4. B: Representative confocal cell images for twelve different conditions (three CuSO4 concentrations, either THPTA or BTTAA ligand, and either alkyl azide or picolyl azide). For each condition, the Alexa Fluor® 647 labeling channel and the CFP channel, overlaid on DIC, are shown. Insets show the Alexa Fluor® 647 channel at higher contrast. Scale bars, 10 μm.
LplA labeling was performed with picolyl azide 8,8-azidooctanoic acid, or 10-undecynoic acid. CuAAC was performed with either alkyne, picolyl azide, or alkyl azide conjugates to Alexa Fluor® 647. A: Representative images showing labeling of LAP-CFP-TM on the surface of live HEK cells under four different conditions. CFP channels are shown, along with Alexa Fluor® 647 labeling channels normalized to the same intensity range (bottom) or not normalized (middle). LplA labeling protocol for all four conditions: 200 μM azide or alkyne substrate, 10 μM LplA (wild-type or mutant), 1 mM ATP, and 5 mM Mg(OAc)2 in cell culture medium for 20 min. […] B: Quantitation of data in (A). Average Alexa Fluor® 647/CFP intensity ratios were calculated for ˜50 single cells from each condition. […]

[6] = conjugation to LAP, previously reported

T1 sequence (P32099 2-338): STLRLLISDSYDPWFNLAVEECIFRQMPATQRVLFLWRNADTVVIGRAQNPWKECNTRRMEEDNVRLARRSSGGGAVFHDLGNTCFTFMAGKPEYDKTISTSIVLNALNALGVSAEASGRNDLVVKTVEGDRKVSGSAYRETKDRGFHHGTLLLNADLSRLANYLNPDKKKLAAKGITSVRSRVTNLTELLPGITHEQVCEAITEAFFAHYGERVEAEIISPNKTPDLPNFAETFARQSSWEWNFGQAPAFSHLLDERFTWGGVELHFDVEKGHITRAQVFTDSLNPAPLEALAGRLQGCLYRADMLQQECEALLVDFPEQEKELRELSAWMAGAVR

6,8-difluoro-7-hydroxycoumarin [Pacific Blue]
pKa of 7-OH substituent [1]: 3.7

O=C(O)CCCC[C@@H]1CCSS1 (racemic) [lipoic acid]
kcat ([2]; lipoic acid ligation by wild-type LplA): 0.22 s⁻¹

[N-]=[N+]=NCCCCCCCC(=O)O [8-azidooctanoic acid, reference compound]
lipoylation of remaining LAP sites after azide labeling, relative to condition 3 (100%) [3]: 37%
estimated extent of azide ligation [3]: 63%
Km [2, 6]: 127 µM
kcat [2, 6]: 0.111 s⁻¹

[N-]=[N+]=NCc1ccccn1 [Azide 2, 2-azidomethylpyridine]
improvement in initial CuAAC rate over carbocyclic analog [4]: 43 fold

[N-]=[N+]=NCc1ccc(C(=O)O)cc1 [Azide 3, 4-azidomethylbenzoic acid, reference compound]
time for CuAAC reaction to completion ([4]; THPTA added, 100 and 40 uM Cu): ≤ 30 min

[N-]=[N+]=NCc1ccc(C(=O)O)cn1 [Azide 4, 6-Azidomethylnicotinic acid]
improvement in initial CuAAC rate over carbocyclic analog [4]: 14 fold
time for CuAAC reaction to completion ([4]; THPTA absent, 100 and 40 uM Cu): ≤ 30 min
time for CuAAC reaction to completion ([4]; THPTA added, all three copper concentrations (10, 40, 100 μM)): ≤ 5 min

COc1ccnc(CN=[N+]=[N-])c1 [Azide 6, 2-Azidomethyl-4-methoxypyridine]
effect of ring substituent on CuAAC reaction [4]: further accelerated the CuAAC reaction

[N-]=[N+]=NCc1cc(Cl)ccn1 [Azide 7, 2-Azidomethyl-4-chloropyridine]
effect of ring substituent on CuAAC reaction [4]: dampened the accelerating effect

[N-]=[N+]=NCc1ccc(C(=O)NCCCCC(=O)O)cn1 [Picolyl azide 8, 5-(6-(Azidomethyl)nicotinamido)pentanoic acid]
lipoylation of remaining LAP sites after azide labeling, relative to condition 3 (100%) [3]: 19%
difference in ligation extent over 8-azidooctanoic acid ligation ([3]; 20 min labeling conditions): at most 1.5 fold
estimated extent of azide ligation [3]: 81%
signal of picolyl azide ligation followed by fluorophore-alkyne relative to alkyne ligation followed by fluorophore-picolyl azide ([5]; 100 μM CuSO4, 500 μM THPTA, 5 min (FIG. 13)): ~2.4 fold
boost of cell signal on replacement of 8-azidooctanoic acid, corrected for enzymatic ligation efficiencies ([5]; 10, 40, 100 μM Cu, THPTA or BTTAA, corrected): ≤ 25 fold
signal relative to alkyl azide at 100 μM Cu (+THPTA), corrected value ([5]; picolyl azide at 10 μM Cu (+THPTA)): 1.6 fold
signal relative to alkyl azide at 100 μM Cu, corrected value ([5]; picolyl azide at 40 μM Cu, BTTAA): 3.9 fold
